Source: patent US5939318A, “Cholesterol disposal fusion enzymes” (Regents of the University of California, priority 1996, dated 1999)

Experiments:
[1] = target: human P450scc (SEQ ID NO: 2), natural three-component system co-expressed with adrenodoxin and adrenodoxin reductase (Homo sapiens, UniProt P05108); settings: substrate 0.5 to 5.0 μM, 24 h incubation, triply transfected COS-1 cells
Experimental: (§1) Cells were maintained at 37° C. in 5% CO2.
(§2) All samples were assayed in triplicate.

[2] = target: fusion enzyme F2, H3N-P450scc-AdRed-Adx-COOH (human P450scc, adrenodoxin reductase 18- form, adrenodoxin) (Homo sapiens, UniProt P05108+P22570); settings: substrate 0.5 to 5.0 μM, 24 h incubation, F2-transfected COS-1 cells
Experimental: as §1, §2

cytochrome P450scc = target: T1, cytochrome P450scc (Bos taurus, UniProt P00189); settings: Morisaki et al 1980; cited from earlier work
T1 sequence (P00189 40-520): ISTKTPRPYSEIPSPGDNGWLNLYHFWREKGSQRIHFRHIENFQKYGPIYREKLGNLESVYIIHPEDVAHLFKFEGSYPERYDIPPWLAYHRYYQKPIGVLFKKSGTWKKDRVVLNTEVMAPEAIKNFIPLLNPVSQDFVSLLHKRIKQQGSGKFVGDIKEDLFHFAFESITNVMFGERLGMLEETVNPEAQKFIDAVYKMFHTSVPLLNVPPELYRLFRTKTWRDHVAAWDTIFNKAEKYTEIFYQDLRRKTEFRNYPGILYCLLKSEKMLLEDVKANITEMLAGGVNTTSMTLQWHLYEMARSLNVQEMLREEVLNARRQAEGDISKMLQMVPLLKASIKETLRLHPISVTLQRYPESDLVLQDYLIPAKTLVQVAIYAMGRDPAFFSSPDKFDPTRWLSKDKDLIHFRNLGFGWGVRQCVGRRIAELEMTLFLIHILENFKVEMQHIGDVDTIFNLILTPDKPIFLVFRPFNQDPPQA

Sequence of human P450scc (SEQ ID NO: 2), natural three-component system co-expressed with adrenodoxin and adrenodoxin reductase (P05108 40-521 I301M): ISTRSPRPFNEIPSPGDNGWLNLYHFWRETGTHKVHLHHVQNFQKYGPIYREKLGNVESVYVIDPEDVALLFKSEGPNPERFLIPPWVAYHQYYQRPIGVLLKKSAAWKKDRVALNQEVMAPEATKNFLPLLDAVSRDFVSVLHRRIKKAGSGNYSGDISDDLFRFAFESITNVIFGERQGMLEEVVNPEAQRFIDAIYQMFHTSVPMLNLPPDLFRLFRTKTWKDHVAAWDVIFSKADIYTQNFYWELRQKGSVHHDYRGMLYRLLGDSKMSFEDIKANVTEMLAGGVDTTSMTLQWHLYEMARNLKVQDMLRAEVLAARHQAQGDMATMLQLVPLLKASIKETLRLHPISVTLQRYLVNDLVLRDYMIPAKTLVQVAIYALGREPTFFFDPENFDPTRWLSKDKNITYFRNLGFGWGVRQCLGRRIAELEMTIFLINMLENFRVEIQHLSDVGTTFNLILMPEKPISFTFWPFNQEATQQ
Sequence of fusion enzyme F2, H3N-P450scc-AdRed-Adx-COOH (human P450scc, adrenodoxin reductase 18- form, adrenodoxin) (P05108+P22570 fused): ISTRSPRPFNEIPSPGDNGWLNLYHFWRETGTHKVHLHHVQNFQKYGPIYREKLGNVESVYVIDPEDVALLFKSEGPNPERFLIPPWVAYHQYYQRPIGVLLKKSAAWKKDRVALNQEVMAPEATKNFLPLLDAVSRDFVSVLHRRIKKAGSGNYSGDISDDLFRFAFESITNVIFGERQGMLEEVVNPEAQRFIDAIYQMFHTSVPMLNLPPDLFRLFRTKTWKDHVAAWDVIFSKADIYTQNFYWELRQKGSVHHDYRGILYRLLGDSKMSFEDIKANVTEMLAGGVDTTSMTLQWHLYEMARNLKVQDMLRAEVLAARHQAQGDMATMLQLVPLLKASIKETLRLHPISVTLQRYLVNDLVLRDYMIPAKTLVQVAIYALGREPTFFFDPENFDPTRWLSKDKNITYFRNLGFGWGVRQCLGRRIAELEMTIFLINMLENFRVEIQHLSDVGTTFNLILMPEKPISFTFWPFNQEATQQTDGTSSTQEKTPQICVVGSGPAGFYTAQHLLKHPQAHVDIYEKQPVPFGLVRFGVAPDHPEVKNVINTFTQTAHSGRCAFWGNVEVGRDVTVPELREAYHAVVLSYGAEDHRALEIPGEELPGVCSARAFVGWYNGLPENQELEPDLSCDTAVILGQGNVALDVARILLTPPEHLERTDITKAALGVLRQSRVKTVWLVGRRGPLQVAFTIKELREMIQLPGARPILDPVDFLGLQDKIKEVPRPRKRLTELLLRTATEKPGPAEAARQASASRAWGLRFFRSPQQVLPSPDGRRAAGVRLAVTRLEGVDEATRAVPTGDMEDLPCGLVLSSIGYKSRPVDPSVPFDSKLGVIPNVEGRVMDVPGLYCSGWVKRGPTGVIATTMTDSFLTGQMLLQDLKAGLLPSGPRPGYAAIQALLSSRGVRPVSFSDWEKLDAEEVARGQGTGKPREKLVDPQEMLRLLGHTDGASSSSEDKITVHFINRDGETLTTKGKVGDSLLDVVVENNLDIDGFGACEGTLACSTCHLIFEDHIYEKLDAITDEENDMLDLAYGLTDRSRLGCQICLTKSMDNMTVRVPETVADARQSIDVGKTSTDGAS

| Structure (SMILES) | Vmax [1] | Km ([1]; dose-response data) | Km [2] | Vmax ([2]; pregnenolone in culture medium) | turnover (cholesterol converted per enzyme) (cytochrome P450scc) |
| --- | --- | --- | --- | --- | --- |
| CC(C)CC[C@@H](O)[C@@H](C)[C@H]1CC[C@H]2[C@@H]3CC=C4C[C@@H](O)CC[C@]4(C)[C@H]3CC[C@]12C [22R-hydroxycholesterol] | 1.7 ng pregnenolone/ml of culture medium/24 h | 0.37 µM | 2.85 µM | 9.1 ng/ml/24 h |  |
| CC(C)CCC[C@@H](C)[C@H]1CC[C@H]2[C@@H]3CC=C4C[C@@H](O)CC[C@]4(C)[C@H]3CC[C@]12C [cholesterol] |  |  |  |  | about 1 mole of cholesterol per mole of enzyme per second |
